Data from patent US20240308968A1, “FUNGICIDAL SUBSTITUTED HETEROCYCLES” (FMC Corporation, priority 2021, published 2024).

What was measured:
[1] = test system: Blumeria graminis f. sp. Tritici; experiment: Test C: preventive spray on wheat seedlings, wheat powdery mildew disease rating; format: in vivo; conditions: Blumeria graminis, 192 h, 50 ppm, 100 = 100% disease control, 0 = no control
Summary of the method: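 Disease control scored visually after 8 days at 20° C, on a 0–100 scale versus untreated controls. Seedlings had received a preventive run-off spray one day before dusting with powdery mildew spores; compounds were suspended in acetone/water (50/50) containing 50–250 ppm PEG400.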

[2] = test system: Puccinia recondita f. sp. Tritici; experiment: Test B: preventive spray on wheat seedlings, wheat leaf rust disease rating; format: in vivo; conditions: Puccinia recondita, 192 h, 50 ppm, 100 = 100% disease control, 0 = no control
Summary of the method: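 Preventive test: one day after spraying wheat seedlings to run-off with ppm suspensions (acetone/water 1:1, 50-250 ppm PEG400), leaf rust spores were applied. Incubation was 24 h at saturation then 7 days at 20° C.; disease scored 0-100% control relative to untreated.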

Phakopsora pachyrhizi = experiment: Test D: preventive spray on soybean seedlings, Asian soybean rust disease rating; format: in vivo; conditions: Phakopsora pachyrhizi, 216 h, 50 ppm, 100 = 100% disease control, 0 = no control
Summary of the method: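 Seedlings of soybean were challenged with rust spores one day after a run-off spray of test suspension (acetone/water 50/50, 50–250 ppm PEG400); after 24 h saturated humidity and 8 days growth, both at 22° C, disease was scored visually.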

Zymoseptoria tritici = experiment: Test A: preventive spray on wheat seedlings, wheat leaf blotch disease rating; format: in vivo; conditions: Zymoseptoria tritici, 456 h, 50 ppm, 100 = 100% disease control, 0 = no control
Summary of the method: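 Disease scored after 17 days in a 20 °C growth chamber, following 48 h at 24 °C in saturated air after spore inoculation with Z. tritici. Inoculation came one day after wheat seedlings were sprayed to run-off with test suspension (acetone/water 50/50, 50–250 ppm PEG400).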

Alternaria solani = experiment: Test F: preventive spray on tomato seedlings, tomato early blight disease rating; format: in vivo; conditions: Alternaria solani, 120 h, 50 ppm, 100 = 100% disease control, 0 = no control
Summary of the method: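 Preventive test: a day after run-off spraying with acetone/water–PEG400 suspensions (ppm), seedlings received an A. solani spore inoculum. Incubation was 48 h at 27 °C in saturated air followed by 3 days in a 20 °C chamber. Visual scores express percent disease control versus untreated plants (0–100).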

Botrytis cinerea = experiment: Test E: preventive spray on tomato seedlings, tomato Botrytis disease rating; format: in vivo; conditions: Botrytis cinerea, 120 h, 50 ppm, 100 = 100% disease control, 0 = no control
Summary of the method: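 Preventive test: one day after spraying seedlings to run-off with test suspension (ppm in acetone/water, 50–250 ppm PEG400), B. cinerea spores applied. Incubation 48 h at 20 °C saturated humidity plus 3 days at 24 °C preceded visual rating as percent disease control versus controls.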

With `COc1cc(OC)c(Cl)c(-c2noc(=O)c(C)c2-c2ccc(F)cc2Cl)c1` [Compound 64, 3-(2-chloro-3,5-dimethoxyphenyl)-4-(2-chloro-4-fluorophenyl)-5-methyl-6H-1,2-oxazin-6-one] the pest or weed control at 50 ppm [1] was 98%, the melting point was 161 to 164 °C and the pest or weed control at 50 ppm [2] was 100%. It also gave a pest or weed control at 50 ppm (Phakopsora pachyrhizi) of 99%, a pest or weed control at 50 ppm (Zymoseptoria tritici) of 97% and a pest or weed control at 50 ppm (Alternaria solani) of 99%. The pest or weed control at 50 ppm (Botrytis cinerea) was 91%.
`COc1cc(OC)c(Cl)c(-n2nc(Cl)c(=O)c(C)c2-c2ccc(F)cc2Cl)c1` [Compound 92, 3-chloro-6-(2-chloro-4-fluorophenyl)-1-(2-chloro-3,5-dimethoxyphenyl)-5-methyl-4(1H)-pyridazinone] showed a pest or weed control at 50 ppm [1] of 99%, a melting point of 192 to 195 °C and a pest or weed control at 50 ppm [2] of 100%. The pest or weed control at 50 ppm (Phakopsora pachyrhizi) was 100%, the pest or weed control at 50 ppm (Zymoseptoria tritici) was 100% and the pest or weed control at 50 ppm (Alternaria solani) was 99%. It also gave a pest or weed control at 50 ppm (Botrytis cinerea) of 96%.
Work on `COc1cc(OC)c(Cl)c(-c2cc(C#N)c(=O)n(C)c2-c2c(F)cc(F)cc2F)c1` [Compound 68, 5-(2-chloro-3,5-dimethoxyphenyl)-1,2-dihydro-1-methyl-2-oxo-6-(2,4,6-trifluorophenyl)-3-pyridinecarbonitrile] yielded a pest or weed control at 50 ppm [1] of 99%, a melting point of 159 to 162 °C and a pest or weed control at 50 ppm [2] of 100%. The pest or weed control at 50 ppm (Phakopsora pachyrhizi) was 100%, the pest or weed control at 50 ppm (Zymoseptoria tritici) was 100% and the pest or weed control at 50 ppm (Alternaria solani) was 99%. The pest or weed control at 50 ppm (Botrytis cinerea) was 93%.
With `COc1cc(OC)cc(-n2nc(C)c(=O)c(C)c2-c2ccc(F)cc2F)c1` [Compound 29, 6-(2,4-difluorophenyl)-1-(3,5-dimethoxyphenyl)-3,5-dimethyl-4(1H)-pyridazinone] the pest or weed control at 50 ppm [1] was 100%, the melting point was 124 to 127 °C and the pest or weed control at 50 ppm [2] was 100%. The pest or weed control at 50 ppm (Phakopsora pachyrhizi) was 99%, the pest or weed control at 50 ppm (Zymoseptoria tritici) was 100% and the pest or weed control at 50 ppm (Alternaria solani) was 100%. The pest or weed control at 50 ppm (Botrytis cinerea) was 98%.
Work on `CCn1c(-c2c(F)cc(F)cc2F)c(-c2cc(OC)cc(OC)c2)cc(C#N)c1=O` [Compound 69, 1,2-dihydro-5-(3,5-dimethoxyphenyl)-1-ethyl-2-oxo-6-(2,4,6-trifluorophenyl)-3-pyridinecarbonitrile] yielded a pest or weed control at 50 ppm [1] of 99%, a melting point of 185 to 187 °C and a pest or weed control at 50 ppm [2] of 100%. The pest or weed control at 50 ppm (Phakopsora pachyrhizi) was 86%, the pest or weed control at 50 ppm (Zymoseptoria tritici) was 100% and the pest or weed control at 50 ppm (Alternaria solani) was 99%. The pest or weed control at 50 ppm (Botrytis cinerea) was 93%.
